Measurements reported in ChEMBL document CHEMBL3046062, “Anti-HIV, antimycobacterial and antimicrobial studies of newly synthesized 1,2,4-triazole clubbed benzothiazoles” (Med Chem Res, 2013).
Converted amounts (≈) assume the structure as drawn.

How the values were obtained:
[1] = tested on: Human immunodeficiency virus 1; assay: Antiviral activity against Human immunodeficiency virus 1 IIIB infected MT4 cells assessed as inhibition of virus-induced cytopathogenicity after 5 days by MTT assay; format: functional, organism-based; details: MT4, 120 h
[2] = Selectivity index, ratio of CC50 for human MT4 cells to IC50 for HIV2 ROD; format: functional
[3] = tested on: Mycobacterium tuberculosis; assay: Antitubercular activity against Mycobacterium tuberculosis H37Rv after 28 days by Lowenstein-Jensen agar method; format: functional; details: 672 h
[4] = tested on: Staphylococcus aureus; assay: Antibacterial activity against Staphylococcus aureus MTCC 96 after overnight incubation by broth microdilution method; format: functional
[5] = tested on: Streptococcus pyogenes; assay: Antibacterial activity against Streptococcus pyogenes MTCC 443 after overnight incubation by broth microdilution method; format: functional
[6] = tested on: Aspergillus niger; assay: Antifungal activity against Aspergillus niger MTCC 282 after overnight incubation by broth microdilution method; format: functional
[7] = Selectivity index, ratio of CC50 for human MT4 cells to IC50 for HIV1 3B; format: functional
[8] = Cytotoxicity against Homo sapiens (human) MT4 cells after 5 days by MTT assay; format: cell-based
[9] = tested on: Escherichia coli; assay: Antibacterial activity against Escherichia coli MTCC 442 after overnight incubation by broth microdilution method; format: functional
[10] = tested on: Mycobacterium tuberculosis; assay: Growth inhibition of Mycobacterium tuberculosis H37Rv at MIC after 28 days by Lowenstein-Jensen agar method; format: functional
[11] = tested on: Human immunodeficiency virus 2; assay: Antiviral activity against Human immunodeficiency virus type 2 (ISOLATE ROD) infected MT4 cells assessed as inhibition of virus-induced cytopathogenicity after 5 days by MTT assay; format: functional, organism-based; details: Human immunodeficiency virus 2, ISOLATE ROD, MT4, 120 h
[12] = tested on: Pseudomonas aeruginosa; assay: Antibacterial activity against Pseudomonas aeruginosa MTCC 2488 after overnight incubation by broth microdilution method; format: functional
[13] = tested on: Aspergillus clavatus; assay: Antifungal activity against Aspergillus clavatus MTCC 323 after overnight incubation by broth microdilution method; format: functional
[14] = tested on: Candida albicans; assay: Antifungal activity against Candida albicans MTCC 227 after overnight incubation by broth microdilution method; format: functional

Structure (SMILES) | IC50 [1] | Ratio CC50/IC50 [2] | MIC [3] | MIC99 [4] | MIC99 [5] | MIC99 [6] | Ratio CC50/IC50 [7] | CC50 at 120 h [8] | MIC99 [9] | growth inhibition (GI) [10] | IC50 [11] | MIC99 [12] | MIC99 [13] | MIC99 [14]
Clc1ccc(-c2nnc(-c3cccnc3)n2Nc2nc3c(Cl)cccc3s2)cc1 | > 27.2 µg/mL | <1 | 12.5 µg/mL (≈ 28.5 µM) | 250 µg/mL (≈ 569 µM) | 500 µg/mL (≈ 1140 µM) | 500 µg/mL (≈ 1140 µM) | <1 | 27.2 µg/mL (≈ 61.8 µM) | 100 µg/mL (≈ 228 µM) | 98% | > 27.2 µg/mL | 62.5 µg/mL (≈ 142 µM) | 500 µg/mL (≈ 1140 µM) | 200 µg/mL (≈ 455 µM)
CO[C@H]1/C=C/O[C@@]2(C)Oc3c(C)c(O)c4c(O)c(c(/C=N/N5CCN(C)CC5)c(O)c4c3C2=O)NC(=O)/C(C)=C\C=C\[C@H](C)[C@H](O)[C@@H](C)[C@@H](O)[C@@H](C)[C@H](OC(C)=O)[C@@H]1C [RIFAMPIN] | – | – | 40 µg/mL (≈ 48.6 µM) | – | – | – | – | – | – | 99% | – | – | – | –
NNc1nc2c(Cl)cccc2s1 | > 117 µg/mL | 1 | – | – | – | – | 1 | 117 µg/mL (≈ 586 µM) | – | – | > 117 µg/mL | – | – | –
COc1ccc2nc(Nn3c(-c4ccc([N+](=O)[O-])cc4)nnc3-c3cccnc3)sc2c1 | > 12.9 µg/mL | <1 | – | – | – | – | <1 | 12.9 µg/mL (≈ 29 µM) | – | – | > 12.9 µg/mL | – | – | –
O=[N+]([O-])c1ccc(-c2nnc(-c3cccnc3)n2Nc2nc3c(Cl)cccc3s2)cc1 | > 15.5 µg/mL | <1 | – | – | – | – | <1 | 15.6 µg/mL (≈ 34.6 µM) | – | – | > 15.5 µg/mL | – | – | –
Fc1ccc2nc(Nn3c(-c4ccc(Cl)cc4)nnc3-c3cccnc3)sc2c1 | > 92.9 µg/mL | <1 | 62.5 µg/mL (≈ 148 µM) | 250 µg/mL (≈ 591 µM) | 500 µg/mL (≈ 1180 µM) | 500 µg/mL (≈ 1180 µM) | <1 | 92.9 µg/mL (≈ 220 µM) | 500 µg/mL (≈ 1180 µM) | 98% | > 92.9 µg/mL | 62.5 µg/mL (≈ 148 µM) | 500 µg/mL (≈ 1180 µM) | 200 µg/mL (≈ 473 µM)
NNc1nc2ccc(Cl)cc2s1 | > 2.48 µg/mL | <1 | – | – | – | – | <1 | 2.48 µg/mL (≈ 12.4 µM) | – | – | > 2.48 µg/mL | – | – | –
Cc1ccc2nc(Nn3c(-c4ccc([N+](=O)[O-])cc4)nnc3-c3cccnc3)sc2c1 | > 64.4 µg/mL | <1 | – | – | – | – | <1 | 64.4 µg/mL (≈ 150 µM) | – | – | > 64.4 µg/mL | – | – | –
Clc1ccc(COC(Cn2ccnc2)c2ccc(Cl)cc2Cl)cc1 (stereo not given) [ECONAZOLE] | – | – | 12.5 µg/mL (≈ 32.7 µM) | – | – | – | – | – | – | 99% | – | – | – | –
Cc1cccc2sc(NN)nc12 | > 9.8 µg/mL | <1 | – | – | – | – | <1 | 9.8 µg/mL (≈ 54.7 µM) | – | – | > 9.8 µg/mL | – | – | –
O=[N+]([O-])c1ccc2nc(Nn3c(-c4ccc(Cl)cc4)nnc3-c3cccnc3)sc2c1 | > 62.1 µg/mL | <1 | 500 µg/mL (≈ 1110 µM) | 125 µg/mL (≈ 278 µM) | 100 µg/mL (≈ 222 µM) | 500 µg/mL (≈ 1110 µM) | <1 | 62.1 µg/mL (≈ 138 µM) | 250 µg/mL (≈ 556 µM) | 98% | > 62.1 µg/mL | 125 µg/mL (≈ 278 µM) | > 1000 µg/mL | 500 µg/mL (≈ 1110 µM)
Cc1ccnc2c1NC(=O)c1cccnc1N2C1CC1 [NEVIRAPINE] | > 0.05 µg/mL | – | – | – | – | – | >80 | > 4 µg/mL | – | – | – | – | – | –
O=[N+]([O-])c1ccc(-c2nnc(-c3cccnc3)n2Nc2nc3cc(Cl)c(Cl)cc3s2)cc1 | > 68.6 µg/mL | <1 | – | – | – | – | <1 | 68.7 µg/mL (≈ 142 µM) | – | – | > 68.6 µg/mL | – | – | –
Cc1ccc2nc(NN)sc2c1 | > 4.52 µg/mL | <1 | – | – | – | – | <1 | 4.52 µg/mL (≈ 25.2 µM) | – | – | > 4.52 µg/mL | – | – | –
NNc1nc2ccc([N+](=O)[O-])cc2s1 | > 12.8 µg/mL | <1 | – | – | – | – | <1 | 12.8 µg/mL (≈ 60.9 µM) | – | – | > 12.8 µg/mL | – | – | –
NNC(=O)c1ccncc1 [ISONIAZID] | – | – | 0.2 µg/mL (≈ 1.46 µM) | – | – | – | – | – | – | 99% | – | – | – | –

Structure (SMILES) | IC50 [1] | Ratio CC50/IC50 [2] | MIC [3] | MIC99 [4] | MIC99 [5] | MIC99 [6] | Ratio CC50/IC50 [7] | CC50 at 120 h [8] | MIC99 [9] | growth inhibition (GI) [10] | IC50 [11] | MIC99 [12] | MIC99 [13] | MIC99 [14]
Cc1cccc2sc(Nn3c(-c4ccc([N+](=O)[O-])cc4)nnc3-c3cccnc3)nc12 | > 13.5 µg/mL | <1 | – | – | – | – | <1 | 13.5 µg/mL (≈ 31.4 µM) | – | – | > 13.5 µg/mL | – | – | –
O=[N+]([O-])c1ccc(-c2nnc(-c3cccnc3)n2Nc2nc3ccc(Br)cc3s2)cc1 | > 13.2 µg/mL | <1 | – | – | – | – | <1 | 13.2 µg/mL (≈ 26.7 µM) | – | – | > 13.2 µg/mL | – | – | –
NNc1nc2cc(Cl)c(Cl)cc2s1 | > 80 µg/mL | <1 | – | – | – | – | <1 | 80 µg/mL (≈ 342 µM) | – | – | > 80 µg/mL | – | – | –
O=[N+]([O-])c1ccc(-c2nnc(-c3cccnc3)n2Nc2nc3ccc(F)cc3s2)cc1 | > 108 µg/mL | 1 | – | – | – | – | 1 | ≥ 108 µg/mL | – | – | > 108 µg/mL | – | – | –
CC1(C)S[C@@H]2[C@H](NC(=O)[C@H](N)c3ccccc3)C(=O)N2[C@H]1C(=O)O [AMPICILLIN] | – | – | – | 250 µg/mL (≈ 715 µM) | 100 µg/mL (≈ 286 µM) | – | – | – | 100 µg/mL (≈ 286 µM) | – | – | 100 µg/mL (≈ 286 µM) | – | –
O=[N+]([O-])c1ccc(-c2nnc(-c3cccnc3)o2)cc1 | > 73.5 µg/mL | <1 | – | – | – | – | <1 | 73.5 µg/mL (≈ 274 µM) | – | – | > 73.5 µg/mL | – | – | –
NNc1nc2ccc(F)cc2s1 | > 13.8 µg/mL | <1 | – | – | – | – | <1 | 13.8 µg/mL (≈ 75.2 µM) | – | – | > 13.8 µg/mL | – | – | –
COc1ccc2nc(NN)sc2c1 | > 14.8 µg/mL | <1 | – | – | – | – | <1 | 14.8 µg/mL (≈ 75.7 µM) | – | – | > 14.8 µg/mL | – | – | –
COC1=CC(=O)C[C@@H](C)[C@]12Oc1c(Cl)c(OC)cc(OC)c1C2=O [GRISEOFULVIN] | – | – | – | – | – | 100 µg/mL (≈ 283 µM) | – | – | – | – | – | – | 100 µg/mL (≈ 283 µM) | 500 µg/mL (≈ 1420 µM)
Clc1ccccc1C(c1ccccc1)(c1ccccc1)n1ccnc1 [CLOTRIMAZOLE] | – | – | 20.4 µg/mL (≈ 59.2 µM) | – | – | – | – | – | – | 96% | – | – | – | –
O=[N+]([O-])c1ccc(-c2nnc(-c3cccnc3)n2Nc2nc3ccc(Cl)cc3s2)cc1 | > 53.7 µg/mL | <1 | – | – | – | – | <1 | 53.7 µg/mL (≈ 119 µM) | – | – | > 53.7 µg/mL | – | – | –
NNc1nc2ccc(Br)cc2s1 | > 8.01 µg/mL | <1 | – | – | – | – | <1 | 8.01 µg/mL (≈ 32.8 µM) | – | – | > 8.01 µg/mL | – | – | –
O=[N+]([O-])c1ccc(-c2nnc(-c3cccnc3)n2Nc2nc3ccc([N+](=O)[O-])cc3s2)cc1 | > 50.8 µg/mL | <1 | – | – | – | – | <1 | 50.8 µg/mL (≈ 110 µM) | – | – | > 50.8 µg/mL | – | – | –
O=[N+]([O-])c1ccc(-c2nnc(-c3cccnc3)n2Nc2nc3c([N+](=O)[O-])cccc3s2)cc1 | > 13.8 µg/mL | <1 | – | – | – | – | <1 | 13.8 µg/mL (≈ 29.9 µM) | – | – | > 13.8 µg/mL | – | – | –
NNc1nc2c([N+](=O)[O-])cccc2s1 | > 14.5 µg/mL | <1 | – | – | – | – | <1 | 14.5 µg/mL (≈ 68.9 µM) | – | – | > 14.5 µg/mL | – | – | –
